Measured values as given in US20110166223A1, “METHODS OF INHIBITING FGFR3 SIGNALING” (CEDARS-SINAI MEDICAL CENTER, priority 2008, published 2011).

System: ERK MAP kinase phosphorylation in KMS11 and OPM2 cells
Assay: FGF2-mediated ERK MAP kinase phosphorylation by western blotting in MM cell lines
Assay type: cell-based
Details: NF449 one hour before FGF2, FIG. 3a
Procedure: FIG. 3, in accordance with an embodiment herein, depicts 4,4′,4″,4′″-[carbonyl-bis[imino-5,1,3-benzenetriyl bis-{carbonylimino}]]tetrakis-{benzene-1,3-disulfonic acid} inhibits FGF2/FGFR3 signaling in MM cell lines OPM2 and KMS11. (a) KMS11 and OPM2 cells were serum-starved for 12 hours, treated with 4,4′,4″,4′″-[carbonyl-bis[imino-5,1,3-benzenetriyl bis-{carbonylimino}]]tetrakis-{benzene-1,3-disulfonic acid} for one hour before the treatment with FGF2 and the levels of ERK MAP kinase phosphorylation were determined by western blotting with the P-ERK1/2(Thr^202/Tyr^204) antibody. As a loading control, the membranes were reprobed with antibody recognizing ERK regardless of its phosphorylation. […] (b) The OPM2 cells were serum starved for 12 hours, pre-treated with 4,4′,4″,4′″-[carbonyl-bis[imino-5,1,3-benzenetriyl bis-{carbonylimino}]]tetrakis-{benzene-1,3-disulfonic acid} for one hour before FGF2 treatment, and analyzed for CCL3 and CCL4 expression by real-time RT-PCR as described herein. The results are expressed as the fold difference relative to control (2^ddCt). […]
Since MM represents another area of pathological FGFR3 signaling in viva, the inventors evaluated whether NF449 inhibits FGFR3 signaling in KMS11 and OPM2 MM cell lines. […]

**Q.** For `O=C(Nc1cc(C(=O)Nc2ccc(S(=O)(=O)O)cc2S(=O)(=O)O)cc(C(=O)Nc2ccc(S(=O)(=O)O)cc2S(=O)(=O)O)c1)Nc1cc(C(=O)Nc2ccc(S(=O)(=O)O)cc2S(=O)(=O)O)cc(C(=O)Nc2ccc(S(=O)(=O)O)cc2S(=O)(=O)O)c1` [NF449, 4,4′,4″,4′″-[carbonyl-bis[imino-5,1,3-benzenetriylbis-{carbonylimino}]]tetrakis-{benzene-1,3-disulfonic acid}], which “FGF2-mediated Thr202/Tyr204 phosphorylation of ERK” value is on record?
**A.** almost completely blocked

**Q.** What about the “FGF2-mediated Thr202/Tyr204 phosphorylation of ERK” value (listed as 4,4′,4″,4′″-[carbonyl-bis[imino-5,1,3-benzenetriyl bis-{carbonylimino}]]tetrakis) of the same compound?
**A.** inhibited
